Experimental data from PubChem BioAssay AID2060610 (Molecular Pharmacology Branch, DTP, NCI, 2025).
“And” between values parts separate entries of the source, which are not always exact repeats. Equal entries are not always repeated. Blank lines part the entries; values can stand above or below the compound they belong to.

System: 616215-338-R-J1-PDC complex spheroids, viability % test/control
Test: Anticancer human tumor 616215-338-R-J1-PDC patient-derived colon adenocarcinoma cell line growth inhibition [CLK]
Settings: for viability, T/C: stronger effect = lower value
Method in brief: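 Multi-cell-type spheroids combined patient-derived tumor cells with HUVEC endothelial cells and human mesenchymal stem cells. Paired agents were dosed in half-log steps down from about clinical Cmax, or from 10 microM where Cmax was unknown.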

[1] = curve of first compound, second compound 0.0316 µM
[2] = curve of first compound, second compound 0.1 µM
[3] = curve of first compound, second compound 0.316 µM
[4] = curve of first compound, second compound 1 µM
[5] = curve of first compound, second compound 3.16 µM
[6] = curve of first compound, second compound 10 µM
[7] = second compound 0.0316 µM, first compound 0.0316 µM
[8] = second compound 0.0316 µM, first compound 0.1 µM
[9] = second compound 0.0316 µM, first compound 0.316 µM
[10] = second compound 0.0316 µM, first compound 1 µM
[11] = second compound 0.0316 µM, first compound 3.16 µM
[12] = second compound 0.0316 µM, first compound 10 µM
[13] = second compound 0.1 µM, first compound 0.0316 µM
[14] = second compound 0.1 µM, first compound 0.1 µM
[15] = second compound 0.1 µM, first compound 0.316 µM
[16] = second compound 0.1 µM, first compound 1 µM
[17] = second compound 0.1 µM, first compound 3.16 µM
[18] = second compound 0.1 µM, first compound 10 µM
[19] = second compound 0.316 µM, first compound 0.0316 µM
[20] = second compound 0.316 µM, first compound 0.1 µM
[21] = second compound 0.316 µM, first compound 0.316 µM
[22] = second compound 0.316 µM, first compound 1 µM
[23] = second compound 0.316 µM, first compound 3.16 µM
[24] = second compound 0.316 µM, first compound 10 µM
[25] = second compound 1 µM, first compound 0.0316 µM
[26] = second compound 1 µM, first compound 0.1 µM
[27] = second compound 1 µM, first compound 0.316 µM
[28] = second compound 1 µM, first compound 1 µM
[29] = second compound 1 µM, first compound 3.16 µM
[30] = second compound 1 µM, first compound 10 µM
[31] = second compound 3.16 µM, first compound 0.0316 µM
[32] = second compound 3.16 µM, first compound 0.1 µM
[33] = second compound 3.16 µM, first compound 0.316 µM
[34] = second compound 3.16 µM, first compound 1 µM
[35] = second compound 3.16 µM, first compound 3.16 µM
[36] = second compound 3.16 µM, first compound 10 µM
[37] = second compound 10 µM, first compound 0.0316 µM
[38] = second compound 10 µM, first compound 0.1 µM
[39] = second compound 10 µM, first compound 0.316 µM
[40] = second compound 10 µM, first compound 1 µM
[41] = second compound 10 µM, first compound 3.16 µM
[42] = second compound 10 µM, first compound 10 µM
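Further: spheroids exposed to agents for 7 days.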
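Wherever viability, T/C is given: 100% = DMSO vehicle wells.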

- IC50 [1]: > 10000 nM
- IC50 [2]: < 31.6 nM
- IC50 [3]: < 31.6 nM
- IC50 [4]: < 31.6 nM
- IC50 [5]: < 31.6 nM
- IC50 [6]: < 31.6 nM
Compound: COc1ccc([C@@H](O)c2cc(-c3ncnc4cc(N5CCOCC5)ccc34)c(F)cc2Cl)nn1 + CNC(=O)c1ccc(Nc2nc(OC3CCCC3)c3c(-c4ccc5nc(C)oc5c4)c[nH]c3n2)c(OC)c1
- viability, T/C [7]: 90.8%
- viability, T/C [8]: 103%
- viability, T/C [9]: 99.1%
- viability, T/C [10]: 100%
- viability, T/C [11]: 114%
- viability, T/C [12]: 72.5%
- viability, T/C [13]: 45.1%
- viability, T/C [14]: 45.4%
- viability, T/C [15]: 43.4%
- viability, T/C [16]: 45.3%
- viability, T/C [17]: 43.2%
- viability, T/C [18]: 28.8%
- viability, T/C [19]: 46.3%
- viability, T/C [20]: 43.5%
- viability, T/C [21]: 39.4%
- viability, T/C [22]: 37.9%
- viability, T/C [23]: 32.4%
- viability, T/C [24]: 28%
- viability, T/C [25]: 40.1%
- viability, T/C [26]: 39.9%
- viability, T/C [27]: 38.9%
- viability, T/C [28]: 38.8%
- viability, T/C [29]: 32.2%
- viability, T/C [30]: 22.6%
- viability, T/C [31]: 49.7%
- viability, T/C [32]: 43.7%
- viability, T/C [33]: 41%
- viability, T/C [34]: 32.6%
- viability, T/C [35]: 30.6%
- viability, T/C [36]: 20.8%
- viability, T/C [37]: 49.1%
- viability, T/C [38]: 41.5%
- viability, T/C [39]: 38.8%
- viability, T/C [40]: 37.1%
- viability, T/C [41]: 27.2%
- viability, T/C [42]: 19.1%

- IC50 (curve of compound): 562 nM and 668 nM
Compound: NC(=O)C(=Cn1cnc(-c2cc(C(F)(F)F)cc(C(F)(F)F)c2)n1)c1cncnc1
- viability, T/C (compound 0.00949 µM): 99.3% and 94.8%
- viability, T/C (compound 0.03 µM): 103% and 87.1%
- viability, T/C (compound 0.0949 µM): 103% and 94.1%
- viability, T/C (compound 0.3 µM): 66.9% and 87.5%
- viability, T/C (compound 0.949 µM): 35.8% and 33.5%
- viability, T/C (compound 3 µM): 15% and 17.6%

- IC50 [1]: < 31.6 nM
- IC50 [2]: < 31.6 nM
- IC50 [3]: < 31.6 nM
- IC50 [4]: < 31.6 nM
- IC50 [5]: < 31.6 nM
- IC50 [6]: < 31.6 nM
Compound: CC(=O)O[C@H]1C(=O)[C@@]2(C)[C@H]([C@H](OC(=O)c3ccccc3)[C@]3(O)C[C@H](OC(=O)[C@H](O)[C@@H](NC(=O)c4ccccc4)c4ccccc4)C(C)=C1C3(C)C)[C@]1(OC(C)=O)CO[C@@H]1C[C@@H]2O + CNC(=O)c1ccc(Nc2nc(OC3CCCC3)c3c(-c4ccc5nc(C)oc5c4)c[nH]c3n2)c(OC)c1
- viability, T/C [7]: 35%
- viability, T/C [8]: 27.8%
- viability, T/C [9]: 23.3%
- viability, T/C [10]: 27%
- viability, T/C [11]: 30.8%
- viability, T/C [12]: 36.2%
- viability, T/C [13]: 39.9%
- viability, T/C [14]: 37.7%
- viability, T/C [15]: 35.2%
- viability, T/C [16]: 38.9%
- viability, T/C [17]: 41%
- viability, T/C [18]: 44.2%
- viability, T/C [19]: 34.8%
- viability, T/C [20]: 40%
- viability, T/C [21]: 32%
- viability, T/C [22]: 38.3%
- viability, T/C [23]: 58.5%
- viability, T/C [24]: 46%
- viability, T/C [25]: 45.6%
- viability, T/C [26]: 53.2%
- viability, T/C [27]: 56.6%
- viability, T/C [28]: 60.6%
- viability, T/C [29]: 59.5%
- viability, T/C [30]: 58.1%
- viability, T/C [31]: 34.3%
- viability, T/C [32]: 51.5%
- viability, T/C [33]: 63.4%
- viability, T/C [34]: 63%
- viability, T/C [35]: 72.1%
- viability, T/C [36]: 63.9%
- viability, T/C [37]: 39.5%
- viability, T/C [38]: 43.2%
- viability, T/C [39]: 70.7%
- viability, T/C [40]: 75%
- viability, T/C [41]: 62.7%
- viability, T/C [42]: 62%

- IC50 [1]: < 31.6 nM
- IC50 [2]: < 31.6 nM
- IC50 [3]: < 31.6 nM
- IC50 [4]: < 31.6 nM
- IC50 [5]: < 31.6 nM
- IC50 [6]: < 31.6 nM
Compound: Nc1ccn(C2OC(CO)C(O)C2(F)F)c(=O)n1 (stereo not given) + CNC(=O)c1ccc(Nc2nc(OC3CCCC3)c3c(-c4ccc5nc(C)oc5c4)c[nH]c3n2)c(OC)c1
- viability, T/C [7]: 21.9%
- viability, T/C [8]: 14.5%
- viability, T/C [9]: 18.9%
- viability, T/C [10]: 14.9%
- viability, T/C [11]: 20.3%
- viability, T/C [12]: 18.9%
- viability, T/C [13]: 18.2%
- viability, T/C [14]: 18.4%
- viability, T/C [15]: 16.8%
- viability, T/C [16]: 14.6%
- viability, T/C [17]: 21%
- viability, T/C [18]: 17.4%
- viability, T/C [19]: 22.1%
- viability, T/C [20]: 17.2%
- viability, T/C [21]: 18.1%
- viability, T/C [22]: 17.1%
- viability, T/C [23]: 18.7%
- viability, T/C [24]: 20.2%
- viability, T/C [25]: 18.7%
- viability, T/C [26]: 15.9%
- viability, T/C [27]: 16.9%
- viability, T/C [28]: 17.8%
- viability, T/C [29]: 16.6%
- viability, T/C [30]: 15.6%
- viability, T/C [31]: 19.1%
- viability, T/C [32]: 15.8%
- viability, T/C [33]: 18.6%
- viability, T/C [34]: 18.1%
- viability, T/C [35]: 21.9%
- viability, T/C [36]: 18.3%
- viability, T/C [37]: 21.8%
- viability, T/C [38]: 15%
- viability, T/C [39]: 18.6%
- viability, T/C [40]: 18.2%
- viability, T/C [41]: 23.1%
- viability, T/C [42]: 17.9%

- IC50 (curve of compound): > 10000 nM
Compound: COc1ccc([C@@H](O)c2cc(-c3ncnc4cc(N5CCOCC5)ccc34)c(F)cc2Cl)nn1
- viability, T/C (compound 0.0316 µM): 102% and 93.5%
- viability, T/C (compound 0.1 µM): 106% and 104%
- viability, T/C (compound 0.316 µM): 111% and 108%
- viability, T/C (compound 1 µM): 107% and 99.3%
- viability, T/C (compound 3.16 µM): 112% and 118%
- viability, T/C (compound 10 µM): 77.8% and 78.4%
